Results reported in patent US20080194531A1, “Methods for Treating Visual Disorders” (priority 2005, published 2008).
Entries after “also recorded” stand apart in the source; their conditions may differ.

Assays:
[1] = tested on: neurosensory retinal degeneration (P23H rat); experiment: Outer nuclear layer (ONL) cell counting / retinal histopathology in homozygous P23H rats given TUDCA subcutaneously; assay type: in vivo
Excerpt: We have studied the use of bile acids (tauroursodeoxycholic acid, TUDCA) for inhibition of neurosensory retinal degeneration in an animal model of retinal degeneration (P23H rat).
Animal Studies: The P23H rat model of inherited retinal degeneration is an animal model of a common mutation found in >10% of autosomal dominantly inherited retinitis pigmentosa in humans. This animal model has been studied in the laboratory of Dr. Olsen at the University of Minnesota. The mechanism of retinal degeneration is mediated by apoptosis, but may follow a separate pathway than that of the rds mouse. The P23H rat model represents a protein conformational disorder that leads to retinal degeneration. Other examples of protein conformation disorders include Huntington's and Parkinson's disease.
(§1) Preliminary Study: Homozygous line 1 and line 3 P23H rats (very strong model of rapid retinal degeneration, especially in the homozygous state), were given 100-200 mg/kg/d of TUDCA via subcutaneous injections while control animals will be given placebo vehicle only. Animals were sacrificed at intervals that correspond to the known retinal degenerations. Eyes were enucleated and the neurosensory retina was examined for signs of neuroprotection by counting the cell nuclei in the various retinal layers (FIG. 1; study design). For each animal studied, 14 sections were taken for each eye with 30-50 separate measurements performed and averaged for each section. Counting the average number of outer nuclear layer (ONL) cells was used to determine the level of retinal injury or loss.

[2] = Animal weight recordings in TUDCA-treated P23H rats; assay type: in vivo, rat; details: p<0.05, TUDCA 100-200 mg/kg/d subcutaneous, suggests systemic toxicity
Method: as §1

[3] = tested on: inherited retinal degeneration (rds mouse); details: preliminary work; cited from earlier work
apoptosis = details: in vitro and in vivo; blocking classic pathways, induction of survival pathways; cited from earlier work
[4] = tested on: Huntington's disease animal models; details: animal models of Huntington's disease; cited from earlier work
Parkinsonian rats = details: cited from earlier work
[5] = tested on: neurologic injury after acute ischemic or hemorrhagic stroke; details: cited from earlier work

C[C@H](CCC(=O)NCCS(=O)(=O)O)[C@H]1CC[C@H]2[C@@H]3[C@@H](O)C[C@@H]4C[C@H](O)CC[C@]4(C)[C@H]3CC[C@]12C [TUDCA, tauroursodeoxycholic acid]
thickness of the ONL in histopathologic images, drug treated vs vehicle ([1]; homozygous P23H rat line 1, week 12, TUDCA 100-200 mg/kg/d subcutaneous, FIG. 2): visible difference in the thickness of the drug treated ONL as compared to the vehicle | average number of ONL cells, TUDCA vs vehicle controls ([1]; homozygous P23H rat line 1, weeks 7, 10 and 12, TUDCA 100-200 mg/kg/d subcutaneous, FIG. 3): no statistically significant differences; also recorded: no statistically significant protective effect | rate of retinal degeneration by counting the ONL layer thickness ([1]; homozygous P23H rat line 3, 9 week post-natal time point, p=0.16 (not statistically significant), TUDCA 100-200 mg/kg/d subcutaneous, FIG. 4): trend toward a protective effect | thickness of the ONL in histopathologic images, drug treated vs control ([1]; homozygous P23H rat line 3, TUDCA 100-200 mg/kg/d subcutaneous, FIG. 2): less noticeable difference between the drug treated and the control | animal weight, treated vs controls ([2]; P23H rat line 1, by day 37 and beyond): significant weight loss | animal weight, treated vs controls ([2]; P23H rat line 3, by day 37 and beyond): significant weight loss | electroretinographic response (functional test of vision) [3]: preservation of visual function | protection of the inner nuclear layer of the retina [3]: dramatic protection of the inner nuclear layer of the retina | interruption of apoptosis (apoptosis): will interrupt apoptosis | neuroprotection [4]: neuroprotective | graft survival (Parkinsonian rats): improved graft survival | protection against neurologic injury [5]: protect against neurologic injury
